Test results from PMC9953885 (Biosensors, 2023).
Where a name gives a salt, the structure may show the parent alone.

How the values were obtained:
[1] = target: T1, human pancreatic lipase (hPL) (Homo sapiens, UniProt P16233); conditions: 10 µM; inhibitor
T1 construct: gene PNLIP
T1 sequence (P16233 17-465): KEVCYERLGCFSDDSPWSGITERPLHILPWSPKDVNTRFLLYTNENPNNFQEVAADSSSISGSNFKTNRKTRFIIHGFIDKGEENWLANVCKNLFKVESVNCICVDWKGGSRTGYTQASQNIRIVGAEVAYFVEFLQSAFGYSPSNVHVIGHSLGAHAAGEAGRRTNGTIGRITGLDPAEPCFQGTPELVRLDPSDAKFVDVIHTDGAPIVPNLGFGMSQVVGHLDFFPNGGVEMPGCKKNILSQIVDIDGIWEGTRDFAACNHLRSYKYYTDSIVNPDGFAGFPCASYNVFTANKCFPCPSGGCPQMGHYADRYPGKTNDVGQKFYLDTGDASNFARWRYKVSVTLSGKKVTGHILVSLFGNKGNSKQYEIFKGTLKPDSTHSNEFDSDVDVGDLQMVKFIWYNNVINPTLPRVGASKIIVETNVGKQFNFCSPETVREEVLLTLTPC

[2] = target: T1, human pancreatic lipase (hPL); assay: RLE-based fluorescence hydrolysis assay, dose-inhibition; format: biochemical
[3] = target: T1, human pancreatic lipase (hPL); assay: Michaelis-Menten kinetics of fluorogenic substrate hydrolysis (Km); format: biochemical

| SMILES | % of control remaining [1] [%] | IC50 [2] [µM] | Km [3] [µM] |
| --- | --- | --- | --- |
| COc1ccc(-c2cc(=O)c3c(O)cc(O)c(-c4cc(-c5cc(=O)c6c(O)cc(OC)cc6o5)ccc4OC)c3o2)cc1 [h10, sciadopitysin] | 5.25 | 1.36 | – |
| CC(C)c1cc2c(c(O)c1O)[C@@]13CCCC(C)(C)[C@@H]1C[C@@H]2OC3=O [h9, carnosol] | 4.20 | 0.58 | – |
| CCCCCCCCCCCC(=O)Oc1ccc2nc3ccc(=O)cc-3oc2c1 [RLE, 3-oxo-3H-phenoxazin-7-yl dodecanoate] | – | – | 10.4 |
| CNC(=O)c1cc(Oc2ccc(NC(=O)Nc3ccc(Cl)c(C(F)(F)F)c3)cc2)ccn1 [f1, sorafenib tosylate] | 44.04 | 15.6 | – |
| C[C@@H]1CC[C@@]2(NC1)O[C@H]1C[C@H]3[C@@H]4CC=C5C[C@@H](O[C@@H]6O[C@H](CO)[C@@H](O[C@@H]7O[C@@H](C)[C@H](O)[C@@H](O)[C@H]7O)[C@H](O)[C@H]6O)CC[C@]5(C)[C@H]4CC[C@]3(C)[C@H]1[C@@H]2C [Khasianine] | 102.50 | – | – |
| CC(C)OC(=O)C(C)(C)Oc1ccc(C(=O)c2ccc(Cl)cc2)cc1 [Fenofibrate] | 94.68 | – | – |
| COc1cc(OC)c(CCC(=O)c2ccc(O)cc2)c(OC)c1 [Loureirin B] | 79.89 | – | – |
| COc1cc2c(=O)c(-c3ccc(O)cc3)coc2cc1O[C@@H]1O[C@H](CO)[C@@H](O)[C@H](O)[C@H]1O [Glycitin] | 99.85 | – | – |
| O=C1C[C@@H](c2ccc(O[C@@H]3O[C@H](CO)[C@@H](O)[C@H](O)[C@H]3O)cc2)Oc2cc(O)ccc21 [Liquiritin] | 105.77 | – | – |
| C[C@H]1O[C@@H](O[C@H]2[C@@H](O)C[C@H](O[C@H]3[C@@H](O)C[C@H](O[C@H]4CC[C@@]5(C)[C@H](CC[C@@H]6[C@@H]5C[C@@H](O)[C@]5(C)[C@@H](C7=CC(=O)OC7)CC[C@]65O)C4)O[C@@H]3C)O[C@@H]2C)C[C@H](O)[C@@H]1O [Digoxin] | 99.51 | – | – |
| CC1=C(O)C(=O)C=C2C1=CC=C1[C@@]2(C)CC[C@@]2(C)[C@@H]3C[C@](C)(C(=O)O)CC[C@]3(C)CC[C@]12C [Celastrol] | 84.16 | – | – |
| C[C@@H](Oc1cc(-c2cnn(C3CCNCC3)c2)cnc1N)c1c(Cl)ccc(F)c1Cl [Crizotinib] | 85.14 | – | – |
| Oc1ccc2c(c1)OCO2 [Sesamol] | 103.95 | – | – |
| CN(C)C(=O)Oc1cc(OC(=O)N(C)C)cc(C(O)CNC(C)(C)C)c1 (stereo not shown) [Bambuterol hydrochloride] | 93.23 | – | – |
| CC1(C)O[C@H]2CC(=O)OC[C@]23[C@H]2CC[C@@]4(C)[C@H](c5ccoc5)OC(=O)[C@H]5O[C@]54[C@]2(C)C(=O)C[C@@H]13 [Limonin] | 85.30 | – | – |
| COC(=O)[C@@]1(C)CC[C@]2(C(=O)O)CC[C@]3(C)C(=CC[C@@H]4[C@@]5(C)C[C@H](O)[C@H](O)[C@@](C)(CO)[C@@H]5CC[C@]43C)[C@@H]2C1 [phytolaccagenin] | 85.42 | – | – |
| O=C(c1ccc(OCCN2CCCCC2)cc1)c1c(-c2ccc(O)cc2)sc2cc(O)ccc12 [d1, raloxifene] | 4.05 | 5.63 | – |
| COCCOC(=O)C1=C(C)NC(C)=C(C(=O)OC(C)C)C1c1cccc([N+](=O)[O-])c1 (stereo not shown) [Nimodipine] | 98.69 | – | – |
